“And” between values parts separate entries of the source, which are not always exact repeats. Equal values may be shown once.
Experiment: Pharmacokinetics of decitabine in IVAP rabbit model
Format: in vivo, rabbits
Method: Decitabine was administered intravenously to IVAP rabbits (n=3) at three doses: 0.75, 1.5 and 2.5 mg/kg. It was also administered at 2.5mg/kg orally and through previously implanted intestinal and vascular access ports in the portal vein (PV), upper small intestine (USI), lower small intestine (LSI) and colon (IC). All routes received the same simple formulation of raw compound dissolved in cold saline. Care was taken to insure doses were delivered immediately (less than 15 minutes) after dissolving the powder and that the liquid formulation was kept on ice up to the time of administration. Blood samples were taken simultaneously from the median auricular artery and through a port in the portal vein at predetermined time points. Plasma was separated and kept frozen at −70° C. until shipped to Xenobiotic Laboratories for analysis.
Pharmacokinetic parameters were calculated using non-compartmental models with the Winnonlin v3.1 program.

[1] = IC 2.5 mg/kg, only two successful doses, individual values
[2] = IV 0.75 mg/kg, 2 min, 0.75 mg/kg
[3] = IV 0.75 mg/kg, 15 min, 0.75 mg/kg
[4] = IV 0.75 mg/kg, 60 min, 0.75 mg/kg
[5] = IV 0.75 mg/kg, 120 min, 0.75 mg/kg
[6] = IV 0.75 mg/kg, 240 min, 0.75 mg/kg
[7] = IV 1.5 mg/kg, 15 min, 1.5 mg/kg
[8] = IV 1.5 mg/kg, 60 min, 1.5 mg/kg
[9] = IV 1.5 mg/kg, 120 min, 1.5 mg/kg
[10] = IV 1.5 mg/kg, 180 min, 1.5 mg/kg

For `Nc1ncn([C@H]2C[C@H](O)[C@@H](CO)O2)c(=O)n1` [decitabine, 5-aza-2′-deoxycytidine], the “hepatic first pass effect loss ((AUCIV−AUCPV/AUCIV)×100)” value (2.5 mg/kg into portal vein) was 32%, the “Individual systemic Bioavailability” value (IC 2.5 mg/kg) was 68.29% and 0.22% and the “AUC0-inf in Portal Vein” value [1] was 2.98 ng·h/mL and 830 ng·h/mL. The “AUC0-inf in Systemic Samples” value [1] was 2.51 ng·h/mL and 773 ng·h/mL, the CMAX (IC 2.5 mg/kg, two individual values) was 2.0 ng/mL and 611 ng/mL and the concentration PV, Mean (IV 0.75 mg/kg, 2 min) was 624 ng/mL. The concentration SYS, Mean (IV 0.75 mg/kg, 2 min) was 628 ng/mL, the concentration PV, individual [2] was 581 ng/mL and 621 ng/mL and 669 ng/mL and the concentration SYS, individual [2] was 666 ng/mL and 615 ng/mL and 603 ng/mL. The concentration SYS, Mean (IV 0.75 mg/kg, 5 min) was 422 ng/mL, the concentration SYS, individual (IV 0.75 mg/kg, 5 min, 0.75 mg/kg) was 432 ng/mL and 415 ng/mL and 419 ng/mL and the concentration PV, Mean (IV 0.75 mg/kg, 15 min) was 229 ng/mL. The concentration SYS, Mean (IV 0.75 mg/kg, 15 min) was 247 ng/mL, the concentration PV, individual [3] was 233 ng/mL (2×) and 220 ng/mL and the concentration SYS, individual [3] was 257 ng/mL and 233 ng/mL and 250 ng/mL. It also gave a concentration SYS, Mean (IV 0.75 mg/kg, 30 min) of 177 ng/mL, a concentration SYS, individual (IV 0.75 mg/kg, 30 min) of 177 ng/mL and a concentration PV, Mean (IV 0.75 mg/kg, 60 min) of 83 ng/mL. The concentration SYS, Mean (IV 0.75 mg/kg, 60 min) was 98 ng/mL, the concentration PV, individual [4] was 95.1 ng/mL and 65.8 ng/mL and 89.1 ng/mL and the concentration SYS, individual [4] was 102 ng/mL (2×) and 89.1 ng/mL. For the same compound, the concentration PV, Mean (IV 0.75 mg/kg, 120 min) was 28 ng/mL, the concentration SYS, Mean (IV 0.75 mg/kg, 120 min) was 39 ng/mL and the concentration PV, individual [5] was 21.1 ng/mL and 34 ng/mL. The concentration SYS, individual [5] was 40.6 ng/mL and 35.2 ng/mL and 41 ng/mL, the concentration PV, Mean (IV 0.75 mg/kg, 180 min) was 14 ng/mL and the concentration PV, individual (IV 0.75 mg/kg, 180 min) was 13.9 ng/mL. The concentration SYS, Mean (IV 0.75 mg/kg, 180 min) was 15 ng/mL, the concentration SYS, individual (IV 0.75 mg/kg, 180 min, 0.75 mg/kg) was 15 ng/mL and 13.9 ng/mL and 15.7 ng/mL and the concentration PV, Mean (IV 0.75 mg/kg, 240 min) was 5 ng/mL. The concentration SYS, Mean (IV 0.75 mg/kg, 240 min) was 6 ng/mL, the concentration PV, individual [6] was 4.87 ng/mL and 5.76 ng/mL and the concentration SYS, individual [6] was 5.9 ng/mL and 6.21 ng/mL and 6.31 ng/mL. For the same compound, the “IV AUC0-inf, individual” value (IV 0.75 mg/kg, 0.75 mg/kg) was 327.37 ng·h/mL and 353.53 ng·h/mL and 354.68 ng·h/mL, the concentration PV, Mean (IV 1.5 mg/kg, 2 min) was 1140 ng/mL and the concentration SYS, Mean (IV 1.5 mg/kg, 2 min) was 1080 ng/mL. The concentration PV, individual (IV 1.5 mg/kg, 2 min, 1.5 mg/kg) was 1300 ng/mL and 1130 ng/mL and 985 ng/mL, the concentration SYS, individual (IV 1.5 mg/kg, 2 min, 1.5 mg/kg) was 1240 ng/mL and 919 ng/mL and the concentration PV, Mean (IV 1.5 mg/kg, 5 min) was 652 ng/mL. The concentration PV, individual (IV 1.5 mg/kg, 5 min) was 652 ng/mL, the concentration SYS, Mean (IV 1.5 mg/kg, 5 min) was 735 ng/mL and the concentration SYS, individual (IV 1.5 mg/kg, 5 min, 1.5 mg/kg) was 819 ng/mL and 676 ng/mL and 711 ng/mL. The concentration PV, Mean (IV 1.5 mg/kg, 15 min) was 350 ng/mL, the concentration SYS, Mean (IV 1.5 mg/kg, 15 min) was 433 ng/mL and the concentration PV, individual [7] was 352 ng/mL and 301 ng/mL and 397 ng/mL. The concentration SYS, individual [7] was 443 ng/mL and 404 ng/mL and 453 ng/mL, the concentration PV, Mean (IV 1.5 mg/kg, 30 min) was 266 ng/mL and the concentration PV, individual (IV 1.5 mg/kg, 30 min) was 266 ng/mL. For the same compound, the concentration SYS, Mean (IV 1.5 mg/kg, 30 min) was 330 ng/mL, the concentration SYS, individual (IV 1.5 mg/kg, 30 min, 1.5 mg/kg) was 355 ng/mL and 304 ng/mL and the concentration PV, Mean (IV 1.5 mg/kg, 60 min) was 128 ng/mL. The concentration SYS, Mean (IV 1.5 mg/kg, 60 min) was 156 ng/mL, the concentration PV, individual [8] was 124 ng/mL and 119 ng/mL and 141 ng/mL and the concentration SYS, individual [8] was 149 ng/mL and 148 ng/mL and 171 ng/mL. The concentration PV, Mean (IV 1.5 mg/kg, 120 min) was 59 ng/mL, the concentration SYS, Mean (IV 1.5 mg/kg, 120 min) was 63 ng/mL and the concentration PV, individual [9] was 60 ng/mL and 57.2 ng/mL and 58.8 ng/mL. The concentration SYS, individual [9] was 62.6 ng/mL and 64.9 ng/mL and 60.3 ng/mL, the concentration PV, Mean (IV 1.5 mg/kg, 180 min) was 22 ng/mL and the concentration SYS, Mean (IV 1.5 mg/kg, 180 min) was 24 ng/mL. For the same compound, the concentration PV, individual [10] was 22.1 ng/mL and 21.1 ng/mL, the concentration SYS, individual [10] was 23.7 ng/mL and 25.3 ng/mL and 23 ng/mL and the concentration SYS, individual (IV 1.5 mg/kg, 240 min, 1.5 mg/kg) was 10.2 ng/mL. The “IV AUC0-inf, individual” value (IV 1.5 mg/kg, 1.5 mg/kg) was 552.87 ng·h/mL and 612.34 ng·h/mL, the “IV AUC0-inf, individual” value (IV 2.5 mg/kg, 2.5 mg/kg) was 896.21 ng·h/mL and 1128.11 ng·h/mL and the “Individual systemic Bioavailability” value (LSI 2.5 mg/kg) was 44.48% and 51.78%. The “Volume (Vz)” value (Oral) was 2.29 L/kg and the clearance (Oral) was 37.7 mL/min/kg.
